We go through one molecule from PubChem BioAssay AID743034 (The Scripps Research Institute Molecular Screening Center, 2013).

The test system of one data set is Pooled mouse microsomes. Kind of data set: liver microsomal half-life of V1a-R antagonists, late-stage follow-up, ADME assay for V1a-R antagonist project, biochemical, LC-MS/MS, human and mouse microsomes, powder samples (AID 743034). The note with it: at 1 µM, stronger effect = higher value.
Another data set deals with Pooled human microsomes. The description is as above. The note with it: at 1 µM, stronger effect = higher value.

Each structure is given as a SMILES string. Active and inactive are the calls of the source.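 How the source made its calls: active means half-life above 60 minutes with both human and mouse liver microsomes; inactive means half-life below 60 minutes in both species.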

`O=C(C1CCN(c2ccc(Cl)cn2)CC1)N(CC1CC1)c1ccc(Cl)cc1`: the half-life (commonly the time in which the quantity being followed falls by half) in the data set on Pooled mouse microsomes was 7.8 min (inactive); in the data set with Pooled human microsomes, 23.8 min (inactive).
